Reference: ChEMBL document CHEMBL1201862, “PubChem BioAssay data set” (2004)
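A five-concentration, 48-hour dose response in 96-well plates underlies each endpoint, interpolated linearly between surrounding concentrations. GI50 is the concentration that inhibits growth by half.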 Calls of active or inactive are those of the source. No stated cut-off is given here; in the data, active = GI50 up to about 1.1 µM and inactive = higher.

Tests used:
Assay in all cases: NCI tumour cell line growth inhibition, 48 h
OVCAR-8 = system: OVCAR-8
K562 = system: K562
NCI-H522 = system: NCI-H522
MDA-N = system: MDA-N
NCI/ADR-RES = system: NCI/ADR-RES
PC-3 = system: PC-3
SF-539 = system: SF-539
Hs-578T = system: Hs-578T
HOP-92 = system: HOP-92
UACC-257 = system: UACC-257
BT-549 = system: BT-549
SK-OV-3 = system: SK-OV-3
HOP-62 = system: HOP-62
U-251 = system: U-251
SNB-19 = system: SNB-19
OVCAR-3 = system: OVCAR-3
LOX IMVI = system: LOX IMVI
Malme-3M = system: Malme-3M
RPMI-8226 = system: RPMI-8226

SMILES | GI50 (OVCAR-8) | GI50 (K562) | GI50 (NCI-H522) | GI50 (MDA-N) | GI50 (NCI/ADR-RES) | GI50 (PC-3) | GI50 (SF-539) | GI50 (Hs-578T) | GI50 (HOP-92) | GI50 (UACC-257) | GI50 (BT-549) | GI50 (SK-OV-3) | GI50 (HOP-62) | GI50 (U-251) | GI50 (SNB-19) | GI50 (OVCAR-3) | GI50 (LOX IMVI) | GI50 (Malme-3M) | GI50 (RPMI-8226)
C/C=C/C[C@@H](C)C(=O)C1C(=O)N[C@@H](C(C)C)C(=O)N(C)CC(=O)N(C)[C@@H](CC(C)C)C(=O)N[C@@H](C(C)C)C(=O)N(C)[C@@H](CC(C)C)C(=O)N[C@@H](C)C(=O)N[C@@H](C)C(=O)N(C)[C@@H](CC(C)C)C(=O)N(C)[C@@H](CC(C)C)C(=O)N(C)[C@@H](C(C)C)C(=O)N1C (stereo partly drawn) | 9.82 µM (inactive) | 4.45 µM (inactive) | 4.19 µM (inactive) | 2.39 µM (inactive) | 2.74 µM (inactive) | 0.703 µM (active) | 4.23 µM (inactive) | 6.21 µM (inactive) | 7.26 µM (inactive) | 5.33 µM (inactive) | 4.98 µM (inactive) | > 20.5 µM (inactive) | 6.47 µM (inactive) | 5.94 µM (inactive) | 14 µM (inactive) | 4.09 µM (inactive) | 2.82 µM (inactive) |  | 
N=C(N)N/N=C\c1c(-c2cccc([N+](=O)[O-])c2)nc2sc(Cl)cn12 | 2.75 µM (inactive) | 0.575 µM (active) | 1.98 µM (inactive) |  | > 100 µM (inactive) | 2.13 µM (inactive) | 2.6 µM (inactive) | 43.4 µM (inactive) | 3.16 µM (inactive) | 2.29 µM (inactive) | 2.39 µM (inactive) |  |  | 3.17 µM (inactive) | 2.45 µM (inactive) | 3.24 µM (inactive) | 3.7 µM (inactive) | 2.42 µM (inactive) | 2.22 µM (inactive)
C=C(C)C1CCC(C(=O)O)CC1 (stereo not drawn) | > 100 µM (inactive) | > 100 µM (inactive) | > 100 µM (inactive) | > 100 µM (inactive) |  | > 100 µM (inactive) | > 100 µM (inactive) | > 100 µM (inactive) | > 100 µM (inactive) | > 100 µM (inactive) | > 100 µM (inactive) | > 100 µM (inactive) | > 100 µM (inactive) | > 100 µM (inactive) | > 100 µM (inactive) | > 100 µM (inactive) | > 100 µM (inactive) | > 100 µM (inactive) | > 100 µM (inactive)
C/C(=C\CO)CC/C=C(\C)CNc1ccc([N+](=O)[O-])cc1 | 30.8 µM (inactive) | 15 µM (inactive) | 18 µM (inactive) |  | 22 µM (inactive) | 18 µM (inactive) | 28.6 µM (inactive) | 16.6 µM (inactive) |  | 21.6 µM (inactive) | 10.1 µM (inactive) | > 100 µM (inactive) | > 100 µM (inactive) | 23.7 µM (inactive) | 40.3 µM (inactive) | 17.4 µM (inactive) | 22.3 µM (inactive) | 8.2 µM (inactive) | 
COC(=O)CCC1(CCC(=O)OC)CCCCCCC(CCC(=O)OC)(CCC(=O)OC)C(=O)C1=O | > 100 µM (inactive) | 23.6 µM (inactive) | > 100 µM (inactive) | > 100 µM (inactive) | 81.5 µM (inactive) | 47.8 µM (inactive) | > 100 µM (inactive) | > 100 µM (inactive) | 54.6 µM (inactive) | > 100 µM (inactive) |  | > 100 µM (inactive) | > 100 µM (inactive) | > 100 µM (inactive) | > 100 µM (inactive) | 55.3 µM (inactive) | > 100 µM (inactive) | > 100 µM (inactive) | < 0.01 µM (active)
CCOC(CN(C)C(=O)Nc1ccc(Cl)c(Cl)c1)OCC | > 10 µM (inactive) | > 10 µM (inactive) | > 10 µM (inactive) | > 10 µM (inactive) | > 10 µM (inactive) | > 10 µM (inactive) | > 10 µM (inactive) | > 10 µM (inactive) | > 10 µM (inactive) | > 10 µM (inactive) |  | > 10 µM (inactive) | > 10 µM (inactive) | > 10 µM (inactive) | > 10 µM (inactive) | > 10 µM (inactive) | > 10 µM (inactive) | > 10 µM (inactive) | > 10 µM (inactive)
CCCCCCc1cc2cc(-c3csc(-c4ccc(OC)cc4)n3)c(=O)oc2cc1O |  | 19.3 µM (inactive) |  |  |  | 18.9 µM (inactive) | 12.8 µM (inactive) | 15.8 µM (inactive) | 3.57 µM (inactive) | 8.51 µM (inactive) | 2.36 µM (inactive) | 15.2 µM (inactive) | 14.7 µM (inactive) | 5.24 µM (inactive) | 9.95 µM (inactive) |  | 12.6 µM (inactive) |  | 33.8 µM (inactive)
Oc1c(N2CCOCC2)cc(-c2cc(N3CCOCC3)c(O)c3ccccc23)c2ccccc12 | 1.6 µM (inactive) | 1.88 µM (inactive) | 2.23 µM (inactive) | 0.389 µM (active) | 3.13 µM (inactive) | 2.64 µM (inactive) | 2.09 µM (inactive) | 3.44 µM (inactive) |  | 2.29 µM (inactive) | 1.77 µM (inactive) | 6.47 µM (inactive) | 1.69 µM (inactive) | 1.82 µM (inactive) | 3.61 µM (inactive) | 2.47 µM (inactive) | 1.77 µM (inactive) | 0.486 µM (active) | 
